The source made the active and inactive calls.
Key:
[1] = inhibitors of HIV Env-driven cell fusion, dose response, cherry-pick (AID 652057); assay type: functional, cell-based
[2] = inhibitors of clade B AD8 Env fusion, dose response, cell-based, cherry-pick (AID 652062); assay type: functional;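 note: luciferase signal from cell-cell fusion driven by HIV-1 clade B AD8 Env; potency is for inhibitors of fusion seen as a drop in luminescence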
[3] = growth suppression of beta-catenin-knockout colon cells, dose response, cell-based, HCT116, human colon tumor (AID 1045); assay type: functional;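 note: HCT116 colon tumor cells with beta catenin knocked out; cells exposed to compound for 60 hours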
[4] = growth suppression of PTEN-null colon cells, dose response, cell-based, HCT116 PTEN knockout (AID 1047); assay type: functional;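 note: HCT116 colon tumor cells with PTEN knocked out; cells exposed to compound for 60 hours before readout; potency for loss of cell viability measured by luminescence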
[5] = biological target: T1, Estrogen receptor (Homo sapiens, UniProt P03372);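 note: potency for inhibiting coactivator peptide recruitment to the receptor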
T1 sequence (P03372 whole entry): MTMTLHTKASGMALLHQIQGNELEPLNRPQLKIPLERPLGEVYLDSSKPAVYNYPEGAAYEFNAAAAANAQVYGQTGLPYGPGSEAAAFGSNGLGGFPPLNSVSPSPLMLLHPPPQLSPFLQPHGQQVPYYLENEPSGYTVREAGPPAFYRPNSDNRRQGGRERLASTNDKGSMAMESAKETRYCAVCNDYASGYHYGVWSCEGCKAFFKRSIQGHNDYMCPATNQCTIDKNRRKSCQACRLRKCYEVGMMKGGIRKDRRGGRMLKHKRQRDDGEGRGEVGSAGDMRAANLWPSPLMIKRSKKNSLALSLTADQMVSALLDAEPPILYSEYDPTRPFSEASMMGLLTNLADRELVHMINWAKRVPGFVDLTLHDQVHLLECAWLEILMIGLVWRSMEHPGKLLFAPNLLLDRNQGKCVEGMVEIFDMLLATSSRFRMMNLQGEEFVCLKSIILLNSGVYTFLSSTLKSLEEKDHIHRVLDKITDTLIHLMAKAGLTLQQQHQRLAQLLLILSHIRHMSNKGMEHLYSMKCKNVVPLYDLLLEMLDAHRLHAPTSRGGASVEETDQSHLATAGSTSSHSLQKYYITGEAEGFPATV

[6] = biological target: T2, Short transient receptor potential channel 4 (Mus musculus, UniProt Q9QUQ5); test: mouse TRPC4 channel inhibitors, dose response, cell-based, HEK293 TRPC4/mu-opioid, Fluo-4 calcium (AID 434942); assay type: functional;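 note: potency of inhibitors blocking the TRPC4 calcium response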
T2 sequence (Q9QUQ5 whole entry): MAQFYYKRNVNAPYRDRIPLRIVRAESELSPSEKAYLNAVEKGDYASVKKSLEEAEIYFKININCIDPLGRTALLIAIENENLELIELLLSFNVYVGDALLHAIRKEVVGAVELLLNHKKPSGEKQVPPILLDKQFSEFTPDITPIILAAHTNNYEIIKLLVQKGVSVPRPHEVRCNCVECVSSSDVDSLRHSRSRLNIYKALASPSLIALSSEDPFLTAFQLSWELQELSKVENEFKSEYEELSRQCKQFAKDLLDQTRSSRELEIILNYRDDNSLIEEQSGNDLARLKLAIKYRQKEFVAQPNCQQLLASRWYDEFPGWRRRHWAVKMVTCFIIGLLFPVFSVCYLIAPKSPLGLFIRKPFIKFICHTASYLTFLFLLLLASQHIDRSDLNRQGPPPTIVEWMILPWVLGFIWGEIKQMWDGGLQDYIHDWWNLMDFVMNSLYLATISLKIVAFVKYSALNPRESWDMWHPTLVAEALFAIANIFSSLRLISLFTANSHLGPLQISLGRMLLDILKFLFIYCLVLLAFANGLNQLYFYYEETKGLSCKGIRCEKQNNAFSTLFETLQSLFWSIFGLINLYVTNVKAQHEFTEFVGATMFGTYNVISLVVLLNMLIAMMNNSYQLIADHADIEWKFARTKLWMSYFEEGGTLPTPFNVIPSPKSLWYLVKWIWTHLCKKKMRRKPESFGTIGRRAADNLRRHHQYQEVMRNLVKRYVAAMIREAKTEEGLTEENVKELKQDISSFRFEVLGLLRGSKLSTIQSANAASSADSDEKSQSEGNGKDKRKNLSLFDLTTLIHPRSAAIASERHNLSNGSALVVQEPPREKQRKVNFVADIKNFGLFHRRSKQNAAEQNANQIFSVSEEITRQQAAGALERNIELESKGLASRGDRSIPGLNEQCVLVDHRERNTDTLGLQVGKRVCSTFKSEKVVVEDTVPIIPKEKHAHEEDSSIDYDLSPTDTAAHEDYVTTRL

[7] = biological target: Cytochrome P450 2D6 (Homo sapiens, UniProt P10635);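 note: CYP2D6 member of a cytochrome P450 panel assay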
[8] = biological target: T3, Cytochrome P450 1A2 (Homo sapiens, UniProt P05177);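 note: PubChem cytochrome P450 panel assay, CYP1A2 panel member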
T3 sequence (P05177 whole entry): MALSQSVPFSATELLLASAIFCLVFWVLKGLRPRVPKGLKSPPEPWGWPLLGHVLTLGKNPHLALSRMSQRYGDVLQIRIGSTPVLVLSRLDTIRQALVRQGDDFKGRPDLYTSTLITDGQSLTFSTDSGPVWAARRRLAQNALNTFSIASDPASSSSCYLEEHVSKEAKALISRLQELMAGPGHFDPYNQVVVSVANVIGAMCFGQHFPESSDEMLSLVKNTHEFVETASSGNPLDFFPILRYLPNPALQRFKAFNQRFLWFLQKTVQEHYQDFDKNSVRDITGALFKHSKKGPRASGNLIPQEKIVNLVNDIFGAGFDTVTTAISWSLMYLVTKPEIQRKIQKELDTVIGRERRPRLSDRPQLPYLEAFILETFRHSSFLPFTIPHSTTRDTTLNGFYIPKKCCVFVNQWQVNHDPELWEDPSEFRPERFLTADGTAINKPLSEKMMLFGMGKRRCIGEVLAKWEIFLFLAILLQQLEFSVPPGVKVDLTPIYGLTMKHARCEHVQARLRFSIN

[9] = biological target: T4, Polyadenylate-binding protein 1 (Homo sapiens, UniProt P11940); test: PABP1 MLLE–PAM2 binding inhibitor potency, dose response, biochemical, fluorescence polarization, FITC-PAM2 peptide (AID 602259); assay type: functional; details: read-out: IC50_Mean
[10] = biological target: T4, Polyadenylate-binding protein 1; test: PABP1 MLLE–PAM2 interaction inhibitors, dose response, miRNA deadenylation inhibitor project, biochemical, fluorescence polarization, Cy5-PAM2 peptide, secondary (AID 602260); assay type: functional; details: read-out: IC50_Mean
[11] = ZM109 Env clade C HIV-1 fusion inhibitors, dose response, HeLa effector, CEM target cells, luciferase, cherry-pick (AID 652058); assay type: functional, cell-based
[12] = biological target: Paired box protein Pax-8 (Homo sapiens, UniProt Q06710); test: inhibitors of PAX8-driven TPO luciferase reporter, dose response, RMG-I cells, cherry-pick (AID 687027); assay type: functional, cell-based;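 note: luciferase reporter driven by Pax8 target thyroperoxidase promoter measured by SteadyGlo luminescence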
[13] = system: H9c2; test: cells; assay type: functional, cell-based; details: Rattus norvegicus, H9c2, Myocardium;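 note: confirmatory concentration-response retest of ultra-high-throughput screening hits for modulation of myocardial damage; cell death induced by hydrogen peroxide oxidative stress; compound pretreatment for 60 min then peroxide exposure for 2 h; potency is for protecting the cells against peroxide damage rather than for killing them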
[14] = inhibitors of intracellular T. cruzi replication, confirmation, NIH3T3 host cells, beta-gal luminescence (AID 2044); assay type: functional, cell-based;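 note: intracellular parasites grown in NIH/3T3 mouse fibroblasts as host cells; luminescent beta-galactosidase reporter signal from transgenic T. cruzi replicating inside host cells; inhibitors lower the luminescence signal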
[15] = cytotoxicity toward NIH3T3 fibroblasts, dose response, counter-screen, cell-based, ATP luminescence, mouse fibroblasts (AID 2010); assay type: functional;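 note: cells exposed to compound for about 90 hours before reading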
[16] = system: SN12K1; test: cells; assay type: functional; details: Homo sapiens
[17] = system: P388/ADR; test: cells; assay type: functional; details: Mus musculus
[18] = system: P388; test: cells; assay type: functional; details: Mus musculus
[19] = biological target: T5, RNA-binding protein pos-1 (Caenorhabditis elegans, UniProt G5EF15); test: inhibitors of POS-1/mex-3 RNA binding, dose response, biochemical, fluorescence polarization (AID 1964);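 note: purified POS-1 fused to maltose binding protein made in E. coli; potency of compounds blocking POS-1 binding to fluorescent RNA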
T5 sequence (G5EF15 whole entry): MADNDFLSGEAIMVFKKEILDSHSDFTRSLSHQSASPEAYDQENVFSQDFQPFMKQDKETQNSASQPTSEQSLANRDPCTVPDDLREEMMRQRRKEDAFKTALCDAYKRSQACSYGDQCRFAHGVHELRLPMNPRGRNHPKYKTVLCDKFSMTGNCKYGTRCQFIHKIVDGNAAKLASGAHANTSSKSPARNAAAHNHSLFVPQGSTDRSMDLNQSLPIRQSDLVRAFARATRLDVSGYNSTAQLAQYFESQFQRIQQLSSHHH

[20] = biological target: T6, Zinc finger protein mex-5 (Caenorhabditis elegans, UniProt Q9XUB2); test: MEX-5/TCR-2 RNA interaction inhibitors, dose response, biochemical, C. elegans, fluorescence polarization (AID 1960)
T6 sequence (Q9XUB2 whole entry): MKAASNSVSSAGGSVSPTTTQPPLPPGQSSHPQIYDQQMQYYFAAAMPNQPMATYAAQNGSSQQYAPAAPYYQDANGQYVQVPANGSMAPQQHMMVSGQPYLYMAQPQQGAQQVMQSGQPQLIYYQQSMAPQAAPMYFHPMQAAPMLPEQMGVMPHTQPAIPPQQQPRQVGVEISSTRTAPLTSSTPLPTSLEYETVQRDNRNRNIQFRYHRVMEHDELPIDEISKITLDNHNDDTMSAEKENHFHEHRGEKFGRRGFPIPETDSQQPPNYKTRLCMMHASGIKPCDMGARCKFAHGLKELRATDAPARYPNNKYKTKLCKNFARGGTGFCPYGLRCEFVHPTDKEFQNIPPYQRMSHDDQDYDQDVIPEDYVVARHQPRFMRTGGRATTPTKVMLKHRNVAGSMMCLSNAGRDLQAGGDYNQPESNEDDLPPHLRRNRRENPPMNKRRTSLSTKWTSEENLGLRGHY

T4 sequence (P11940 whole entry): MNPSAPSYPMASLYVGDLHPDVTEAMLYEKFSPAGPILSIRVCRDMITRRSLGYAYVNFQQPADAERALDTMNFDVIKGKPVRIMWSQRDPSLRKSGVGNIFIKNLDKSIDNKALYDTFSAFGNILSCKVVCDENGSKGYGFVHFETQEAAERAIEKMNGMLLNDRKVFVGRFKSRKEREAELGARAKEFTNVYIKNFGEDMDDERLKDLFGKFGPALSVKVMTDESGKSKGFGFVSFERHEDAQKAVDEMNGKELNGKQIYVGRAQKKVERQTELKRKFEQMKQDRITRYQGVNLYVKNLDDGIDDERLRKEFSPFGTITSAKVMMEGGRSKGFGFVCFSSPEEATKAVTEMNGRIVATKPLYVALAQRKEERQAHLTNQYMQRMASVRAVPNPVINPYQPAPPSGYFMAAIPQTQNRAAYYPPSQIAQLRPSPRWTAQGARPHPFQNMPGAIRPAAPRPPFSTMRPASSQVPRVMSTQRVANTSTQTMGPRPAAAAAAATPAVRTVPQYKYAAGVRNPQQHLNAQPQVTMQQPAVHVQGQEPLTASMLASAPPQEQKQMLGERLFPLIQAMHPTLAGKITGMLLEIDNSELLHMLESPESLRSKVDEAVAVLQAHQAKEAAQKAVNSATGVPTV
Chain of Paired box protein Pax-8 (Q06710 whole entry): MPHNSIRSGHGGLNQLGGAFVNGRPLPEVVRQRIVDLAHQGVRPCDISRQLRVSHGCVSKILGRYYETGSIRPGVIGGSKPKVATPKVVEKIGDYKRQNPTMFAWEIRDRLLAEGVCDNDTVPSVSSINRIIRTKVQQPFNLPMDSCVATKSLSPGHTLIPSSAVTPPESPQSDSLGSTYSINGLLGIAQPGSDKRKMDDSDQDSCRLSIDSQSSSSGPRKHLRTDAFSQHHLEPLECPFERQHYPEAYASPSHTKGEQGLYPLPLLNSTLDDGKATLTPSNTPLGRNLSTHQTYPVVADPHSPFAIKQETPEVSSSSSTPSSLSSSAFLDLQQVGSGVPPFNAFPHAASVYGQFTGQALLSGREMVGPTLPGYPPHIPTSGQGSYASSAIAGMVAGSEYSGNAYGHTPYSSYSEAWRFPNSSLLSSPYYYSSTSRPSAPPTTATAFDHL
Chain of Cytochrome P450 2D6 (P10635 whole entry): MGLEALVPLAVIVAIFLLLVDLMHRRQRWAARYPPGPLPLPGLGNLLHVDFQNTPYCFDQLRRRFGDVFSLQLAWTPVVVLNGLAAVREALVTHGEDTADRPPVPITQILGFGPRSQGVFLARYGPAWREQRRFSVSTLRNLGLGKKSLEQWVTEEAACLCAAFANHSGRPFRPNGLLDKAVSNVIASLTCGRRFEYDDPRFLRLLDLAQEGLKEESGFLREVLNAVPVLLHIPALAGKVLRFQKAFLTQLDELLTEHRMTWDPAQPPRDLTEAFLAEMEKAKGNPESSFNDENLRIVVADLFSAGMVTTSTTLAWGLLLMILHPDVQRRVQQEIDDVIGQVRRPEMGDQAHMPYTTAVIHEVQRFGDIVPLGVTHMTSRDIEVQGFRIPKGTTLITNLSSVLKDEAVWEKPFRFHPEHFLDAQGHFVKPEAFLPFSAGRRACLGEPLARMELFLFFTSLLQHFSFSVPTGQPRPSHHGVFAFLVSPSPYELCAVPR

COc1ccc(S(=O)(=O)Nc2ccc3c(c2)CC(=O)N([C@H](C)CO)C[C@H](C)[C@H](CN(C)S(=O)(=O)c2cccs2)O3)cc1
AC50 [1]: 0.509 µM (active)
AC50 [2]: 3.88 µM (active)

Cc1ccc(C)c(Oc2cc(NC(=O)CCCn3nc(C)c([N+](=O)[O-])c3C)cc([N+](=O)[O-])c2)c1
EC50 [3]: 18.9 µM (active)
EC50 [4]: 21.1 µM (active)

Cc1nc2sccn2c1-c1nc(-c2cc3ccccc3o2)cs1
IC50 [5]: 10.7 µM (active)

COc1ccc2nc3oc(C(=O)N4CCN(c5cccc(C(F)(F)F)c5)CC4)cc3cc2c1
IC50 [5]: 15.4 µM (active)

CC(=O)/C(=N\Nc1ccc(Cl)cc1Cl)Sc1nnc(-c2ccccc2)n1-c1ccccc1
EC50 [3]: 8.46 µM (active)
EC50 [4]: 9.61 µM (active)

COc1cccc(C(CNC(=O)C(c2ccccc2)c2ccccc2)N(C)C)c1 (stereo unspecified)
EC50 [6]: 0.944 µM (active)

COc1cc2c(cc1OC)CN(c1nc(CN3CCOCC3)nc3sc4c(c13)CCC(C)C4)CC2 (stereo unspecified)
EC50 [3]: 9.91 µM (active)
EC50 [4]: 9.18 µM (active)

CCOC(=O)c1ccc(NC(=NS(=O)(=O)c2ccccc2C)c2ccccc2)cc1
AC50 [7]: 17.8 µM (inconclusive)
EC50 [3]: 56.2 µM (active)
EC50 [4]: 36.4 µM (active)
AC50 [8]: 25.1 µM (inconclusive)

O=c1c2ccccc2nc(SCc2ccccc2)n1CC1CCCO1 (stereo unspecified)
EC50 [6]: 3.35 µM (active)

CCOc1ccc(NCc2nnc(SCC(=O)Nc3nc(-c4ccccc4)cs3)n2-c2ccccc2)cc1
EC50 [3]: 3.28 µM (active)
EC50 [4]: 3.65 µM (active)

O=C(O)c1cc(-c2ccco2)nc2ccccc12
IC50 [5]: 23.4 µM (active)
IC50 [9]: > 66 µM (inactive)
IC50 [10]: > 66 µM (inactive)

COc1ccc(C(=O)NCCc2ccc(Cl)cc2)cc1S(=O)(=O)N1CCCCC1C (stereo unspecified)
AC50 [1]: 21.7 µM (active)
AC50 [11]: 67.5 µM (active)
AC50 [2]: 11.4 µM (active)

Cc1ccc(S(=O)(=O)Cc2ccc(C(=O)NCc3ccc4c(c3)OCO4)o2)cc1
IC50 [5]: 37.5 µM (not active)

C[C@H](CO)N1C[C@H](C)[C@H](CN(C)Cc2ccc(Cl)c(Cl)c2)Oc2c(NS(=O)(=O)c3ccc(Cl)cc3)cccc2C1=O
AC50 [12]: 13.7 µM (active)
AC50 [1]: 26.9 µM (active)
AC50 [11]: 20.1 µM (active)
AC50 [2]: 42.9 µM (active)

CCCCn1c(NC(=O)c2ccccc2)nc2ccccc21
IC50 [13]: 9.17 µM (active)
EC50 [14]: 2.15 µM (active)
EC50 [15]: 11.3 µM (active)
EC50 [6]: 5.96 µM (active)

c1ccc(-c2ccccc2OCCOCCN2CCCCC2)cc1
EC50 [6]: 2.11 µM (active)

COC(=O)c1ccc2c(c1)C(=O)/C(=C/c1ccc(C)cc1)O2
EC50 [3]: 17.2 µM (active)
EC50 [4]: 16.8 µM (active)

CC1[C@@]2(CCC(C)(C)O2)O[C@@H]2C=C3C4CCC5Cc6nc7c(nc6C[C@@]5(C)C4C[C@H](O)[C@@]3(C)[C@]12O)CC1CCC2C3=C[C@H]4O[C@@]5(O[C@@](C)(CO)C[C@@H]5O)C(C)[C@@]4(O)[C@]3(C)[C@@H](O)CC2[C@]1(C)C7 (stereo partly specified)
GI50 [16]: 0.000365 µM (active)
GI50 [17]: 0.00112 µM (active)
GI50 [18]: 0.365 nM (active)

Cc1ccc(NC(=O)c2sc3nc4c(c(-c5ccco5)c3c2N)CCC4)cc1
IC50 [5]: > 50 µM (not active)
EC50 [19]: 2.13 µM (active)
EC50 [20]: 2.85 µM (active)

FC(F)(F)C1=NC(=NNc2nnc(-c3ccccc3)c(-c3ccccc3)n2)N=C(C(F)(F)F)C1
GI50 [16]: 10.1 µM (inactive)
GI50 [17]: 11.1 µM (inactive)
GI50 [18]: 891 nM (active)

CCCn1c(NCc2ccc(C)o2)nc2ccccc21
EC50 [6]: 5.31 µM (active)
